Laboratory results reported in article PMC9370166, “In Vitro and In Vivo Antibacterial Activity, Toxicity and Resistance Analysis of Pleuromutilin Derivative Z33 against Methicillin-Resistant Staphylococcus aureus” (Molecules, 2022).
≈ marks a conversion by molar mass, not a printed value.

Assays:
[1] = Cytotoxicity test (MTT assay); type: cell-based; conditions: mouse, RAW264.7 macrophages, RAW264.7, MTT, tested up to 20 μg/mL
Protocol: (§1) To assess the effects of tiamulin and Z33 on the viability of RAW264.7 macrophages, the MTT assay was performed according to previous reports. […] After discarding the MTT solution, DMSO (150 μL) was added to each well to dissolve all crystals. OD490nm was recorded using EnSight Multimode Plate Reader (PerkinElmer, […], USA).

RAW264.7 cells = assay: Cytotoxicity test (MTT assay); type: cell-based; conditions: concentrations less than 5 μg/mL, 24 h, MTT
Protocol: as §1

four S. aureus strains [2] = assay: MIC and MBC, summary over four strains; type: cell-based; conditions: Staphylococcus aureus; range over four strains; read-out: MIC values against four S. aureus strains
Protocol: The MIC values of Z33 against MRSA ATCC 43300 and S. aureus clinical isolates were measured according to the broth microdilution guidelines provided by the Clinical and Laboratory Standards Institute (CLSI). S. aureus ATCC 29213 was used as the quality control strain, and the quality control range was referred to the CLSI. The MIC value is defined as the lowest concentration of the compounds with no visible growth of bacteria. The MIC assay was independently repeated three times.
The MBC values of antibacterial agents were measured after incubation at 37 °C for 24 h. Briefly, 100 µL of bacterial solution from the three wells behind the corresponding well of MIC was absorbed and spread on the Mueller–Hinton Agar (MHA). The MBC refers to the lowest concentration corresponding to the amount of colony-forming unit (CFU) ≤ 5 on the medium after 18~24 h of incubation at 37 °C.

MRSA ATCC 43300 = assay: Time-kill kinetics assay; type: cell-based, Staphylococcus aureus; conditions: 8 × MIC; over 24 h of exposure
Protocol: The time–kill kinetics curve of Z33 was determined according to previous reports. MRSA ATCC 43300 strains were grown in Mueller–Hinton Broth (MHB) at the starting inoculum of 10^6 CFU/mL. […] MHB without antibiotics was used as a control. At various time points (0, 3, 6, 9, and 24 h), 100 µL of samples were diluted with 0.9% saline and plated on MHA medium. CFU were recorded after 24 h of incubation at 37 °C.

four S. aureus strains [3] = assay: microbe, parasite or virus in culture; type: cell-based, Staphylococcus aureus
Protocol: To assess the propensity for the development of bacterial resistance, the ability of Z33 and tiamulin to induce resistance to four strains were tested, respectively. Serial passages at 37 °C were performed daily in BHI broth containing sub-MIC concentration (1/4 MIC) of Z33 and tiamulin. The MIC values were daily determined and recorded by the broth microdilution method. A duration of 13 passages was performed in every case.

ICR mice = assay: Acute oral toxicity in mice; conditions: mouse, in vivo, po, 5000 mg/kg
Protocol: (§2) The acute toxicity of Z33 was performed in mice according to previous works with some modifications. The ICR mice were randomly divided into two groups (10 animals in each group, half male and half female) after 12 h of fasting. Z33 was prepared with 0.5% CMC-Na sodium as a suspension at a concentration of 5 g/kg. Mice in the test group were administered with Z33 suspension by oral administration route, and the control group received an equal dose of 0.5% CMC-Na. All the mice were observed critically once a day for 14 days. The test was repeated twice.

[4] = Acute oral toxicity in mice; conditions: both sexes, ICR, mouse, in vivo, 5 g/kg; acute oral toxicity, mice
Protocol: as §2

CYP3A4 = biological target: T1, CYP3A4 (Homo sapiens, UniProt P08684); assay: CYP450 inhibition assay, human liver microsomes, testosterone probe; type: in vitro ADME
T1 construct: 40 µL of the human liver microsomal enzyme (final concentration is 0.5 g/L); tissue Research Institute for Liver Diseases Co., Ltd. (Shanghai, China); host or cells: human liver microsomes
T1 sequence (P08684 whole entry): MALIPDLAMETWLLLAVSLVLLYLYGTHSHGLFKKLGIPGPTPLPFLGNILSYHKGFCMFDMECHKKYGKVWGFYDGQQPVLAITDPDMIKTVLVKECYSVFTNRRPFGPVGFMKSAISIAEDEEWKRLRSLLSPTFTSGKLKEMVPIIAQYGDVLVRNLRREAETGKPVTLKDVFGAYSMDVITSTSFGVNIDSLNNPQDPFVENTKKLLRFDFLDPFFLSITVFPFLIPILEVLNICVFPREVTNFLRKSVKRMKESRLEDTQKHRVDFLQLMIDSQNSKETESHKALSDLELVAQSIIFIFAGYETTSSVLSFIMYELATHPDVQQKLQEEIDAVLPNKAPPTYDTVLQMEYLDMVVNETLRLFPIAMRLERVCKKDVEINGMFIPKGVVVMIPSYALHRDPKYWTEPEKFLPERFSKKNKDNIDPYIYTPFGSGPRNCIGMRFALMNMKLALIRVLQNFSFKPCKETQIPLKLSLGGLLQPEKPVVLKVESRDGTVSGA
Protocol: The inhibition effect of Z33 and tiamulin on the human liver microsomal enzyme was determined as described in the literature with some modifications. Experiments were performed in 96-well plates with a final incubation volume of 100 μL per well. 40 µL of the human liver microsomal enzyme (final concentration is 0.5 g/L), 20 µL of probe substrate (final concentration of testosterone and chlorzoxazone is 20 µmol/L), and 20 µL of test drug were mixed in each well. After preincubation at 37 °C for 5 min, the reactions were started by the addition of 20 μL of NADPH (final concentration is 1 mmol/L). Depending on the substrate, the chlorzoxazone and testosterone groups were incubated at 37 °C for 25 min and 10 min, respectively. The reaction was terminated by adding 100 µL of acetonitrile, and then the supernatant was centrifuged to analyse by LC-MS/MS.

C=C[C@]1(C)C[C@@H](OC(=O)CSc2ccccc2NC(=O)Cn2cc(CN3CCN(c4ccc([N+](=O)[O-])cc4)CC3)nn2)[C@]2(C)[C@H](C)CC[C@]3(CCC(=O)[C@H]32)[C@@H](C)[C@@H]1O [Compound Z33, 22-(2-(2-(4-((4-(4-nitrophenyl)piperazin-1-yl)methyl)-1H-1,2,3-triazol-1-yl)acetamido)phenyl)thioacety-l-yl-22-deoxypleuromutilin]
IC50 at 24 h [1]: ≥ 20 µg/mL
cytotoxicity on RAW264.7 cells (RAW264.7 cells): No significant cytotoxicity
MIC (four S. aureus strains [2]): 0.125 to 0.25 µg/mL (≈ 0.154 to 0.307 µM)
concentration showing inhibition of bacterial growth (time-kill) (MRSA ATCC 43300): 1 µg/mL
fold decrease in susceptibility of the most resistant strain (four S. aureus strains [3]; after 13 passages): 32 fold
fold increase in MICs (four S. aureus strains [3]; after 13 passages): approximately 16 fold
passages after which resistance developed (≥ 4-fold MIC increase) (four S. aureus strains [3]; four S. aureus strains): 8 passages
fold increase in MIC (four S. aureus strains [3]; in 7 passages, sub-MIC (1/4 MIC) exposure): ≤ 4 fold
mortality (ICR mice): None of the mice died
LD50 at 14 days [4]: > 5000 mg/kg
IC50 (CYP3A4): 1570 nM
